Test results from patent US11090319B2, “Therapeutic uses of pharmaceutical compositions comprising cyclic boronic acid ester derivatives” (Melinta Subsidiary Corp., priority 2010, dated 2021).
Where two headings read alike, the source gives them in different places.

Experiments:
[1] = test system: AB1052 Acinetobacter baumannii OXA-24; assay: Ceftazidime MIC with fixed concentration of BLI; type: cell-based; details: AB1052 OXA-24; for Ceftazidime MIC with cyclic boronic acid ester derivative: derivative at 10 μg/mL
Experimental: (§1) Next, ceftazidime potentiation activity of several cyclic boronic acid ester derivatives was tested using a larger panel of strains expressing β-lactamase hydrolyzing enzymes. Ceftazidime MICs were determined alone and in the presence of fixed concentrations of various cyclic boronic acid ester derivatives.

[2] = test system: CF1000 Citrobacter freundii Hyper AmpC expression; assay: Ceftazidime MIC with fixed concentration of BLI; type: cell-based; details: for Ceftazidime MIC with cyclic boronic acid ester derivative: derivative at 10 μg/mL
Experimental: as §1

[3] = test system: CF1001 Citrobacter freundii Hyper AmpC expression; assay: Ceftazidime MIC with fixed concentration of BLI; type: cell-based; details: for Ceftazidime MIC with cyclic boronic acid ester derivative: derivative at 10 μg/mL
Experimental: as §1

[4] = test system: EC1012 Escherichia coli TEM-12; assay: Ceftazidime MIC with fixed concentration of BLI; type: cell-based; details: EC1012 TEM-12; for Ceftazidime MIC with cyclic boronic acid ester derivative: derivative at 10 μg/mL
Experimental: as §1

[5] = test system: EC1016 Escherichia coli FOX-5; assay: Ceftazidime MIC with fixed concentration of BLI; type: cell-based; details: EC1016 FOX-5; for Ceftazidime MIC with cyclic boronic acid ester derivative: derivative at 10 μg/mL
Experimental: as §1

[6] = test system: ECL1003 Enterobacter cloacae Hyper AmpC expression; assay: Ceftazidime MIC with fixed concentration of BLI; type: cell-based; details: for Ceftazidime MIC with cyclic boronic acid ester derivative: derivative at 10 μg/mL
Experimental: as §1

[7] = test system: KP1006 Klebsiella pneumoniae CTX-M2; assay: Ceftazidime MIC with fixed concentration of BLI; type: cell-based; details: for Ceftazidime MIC with cyclic boronic acid ester derivative: derivative at 10 μg/mL
Experimental: as §1

[8] = test system: KP1013 Klebsiella pneumoniae CMY-2; assay: Ceftazidime MIC with fixed concentration of BLI; type: cell-based; details: KP1013 CMY-2; for Ceftazidime MIC with cyclic boronic acid ester derivative: derivative at 10 μg/mL
Experimental: as §1

[9] = test system: KP1014 Klebsiella pneumoniae Vim-1; assay: Ceftazidime MIC with fixed concentration of BLI; type: cell-based; details: KP1014 Vim-1; for Ceftazidime MIC with cyclic boronic acid ester derivative: derivative at 10 μg/mL
Experimental: as §1

SA1000 Salmonella CMY-2 = assay: Ceftazidime MIC with fixed concentration of BLI; type: cell-based; details: SA1000 CMY-2; for Ceftazidime MIC with cyclic boronic acid ester derivative: derivative at 10 μg/mL
Experimental: as §1

[10] = test system: KP1011 Klebsiella pneumoniae SHV-5; assay: microbe, parasite or virus in culture; type: cell-based; details: for Ceftazidime MIC with cyclic boronic acid ester derivative: derivative at 10 μg/mL, KP1011 SHV-5
Experimental: as §1

[11] = biological target: various β-lactamases (bacterial lysates) (Escherichia coli, UniProt A0A5R8T042); assay: biochemical; type: biochemical; details: read-out: AZT IC50 KP1009 CTX-M-15
[12] = biological target: various β-lactamases (bacterial lysates) (Escherichia coli, UniProt A0A649V088); assay: biochemical; type: biochemical; details: read-out: AZT IC50 KP1005 CTX-M-14
[13] = biological target: various β-lactamases (bacterial lysates) (Klebsiella pneumoniae, UniProt Q9F663); assay: biochemical; type: biochemical; details: aztreonam cleavage
[14] = biological target: various β-lactamases (bacterial lysates) (Klebsiella pneumoniae, UniProt Q9F663, H272Y); assay: biochemical; type: biochemical
[15] = biological target: various β-lactamases (bacterial lysates) (Pseudomonas aeruginosa, UniProt P14489); assay: biochemical; type: biochemical; details: AZT IC50 KP1007 OXA-10
[16] = biological target: various β-lactamases (bacterial lysates) (Salmonella typhimurium, UniProt P0A1V8); assay: biochemical; type: biochemical; details: AZT IC50 KPX1001 OXA-2
[17] = test system: ECL1004 Enterobacter cloacae NMC-A; assay: Checkerboard assay, biapenem potentiation; details: Biapenem MIC 8-fold; ECL1004 NMC-A class A
[18] = test system: SM1000 Serratia marcescens SME-2; assay: Checkerboard assay, biapenem potentiation; details: Biapenem MIC 8-fold; SM1000 SME-2 class A
SME-2, lysate of SM1000 = SME-2, lysate of SM1000 (Serratia marcescens, UniProt P52682); assay: Inhibition of biapenem hydrolysis by bacterial lysate; details: read-out: IC50 of inhibition of biapenem hydrolysis; SM1000 SME-2
[19] = biological target: CTX-M-14, lysate of KP1005 (Escherichia coli, UniProt Q9L5C7); assay: Inhibition of ceftazidime hydrolysis by bacterial lysate
[20] = biological target: CTX-M-15, lysate of KP1009 (Escherichia coli, UniProt Q9EXV5); assay: as above
GES-1, lysate of pa 1063 = GES-1, lysate of pa 1063 (Klebsiella pneumoniae, UniProt Q9KJY7); assay: as above
KPC-2, lysate of KP1004 = KPC-2, lysate of KP1004 (Klebsiella pneumoniae, UniProt Q9F663); assay: as above
KPC-2, lysate of KP1008 = KPC-2, lysate of KP1008 (Klebsiella pneumoniae, UniProt Q9F663); assay: as above
SHV-12, lysate of KP1010 = SHV-12, lysate of KP1010 (Klebsiella pneumoniae, UniProt P0AD64, E235K/G234S/L31Q); assay: as above
SHV-18, lysate of KP1012 = SHV-18, lysate of KP1012 (Klebsiella pneumoniae, UniProt P0AD64, E235K/G234A/R39S); assay: as above
DHA-1, lysate of EC1014 = DHA-1, lysate of EC1014 (Escherichia coli, UniProt Q84AE0); assay: as above; details: read-out: IC50 of inhibition of Ceftazidime hydrolysis; EC1014 DHA-1
OXA-2, lysate of KX1000 = OXA-2, lysate of KX1000 (Salmonella typhimurium, UniProt P0A1V8); assay: as above
[21] = Citrobacter freundii, read-out: Ceftazidime MIC Alone
[22] = Escherichia coli, read-out: Ceftazidime MIC Alone
[23] = Klebsiella pneumoniae, read-out: Ceftazidime MIC Alone
[24] = lysate KP1004 KPC-2, read-out: AZT IC50 KP1004 KPC-2 (converted)
[25] = lysate KP1008 KPC-2, read-out: AZT IC50 KP1008 KPC-2

Sequence of various β-lactamases (bacterial lysates) (Escherichia coli, UniProt A0A649V088) (A0A649V088 29-291): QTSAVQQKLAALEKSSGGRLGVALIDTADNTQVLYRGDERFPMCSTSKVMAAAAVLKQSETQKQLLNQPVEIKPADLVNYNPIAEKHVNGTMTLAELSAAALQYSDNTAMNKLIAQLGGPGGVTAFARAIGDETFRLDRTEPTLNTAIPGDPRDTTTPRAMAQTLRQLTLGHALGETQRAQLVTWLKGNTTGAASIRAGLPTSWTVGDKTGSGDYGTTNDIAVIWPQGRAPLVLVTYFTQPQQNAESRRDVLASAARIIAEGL
Sequence of CTX-M-14, lysate of KP1005 (Q9L5C7 entry or part of it): as the sequence (A0A649V088 29-291) above
Sequence of various β-lactamases (bacterial lysates) (Klebsiella pneumoniae, UniProt Q9F663) (Q9F663 whole entry, looked up): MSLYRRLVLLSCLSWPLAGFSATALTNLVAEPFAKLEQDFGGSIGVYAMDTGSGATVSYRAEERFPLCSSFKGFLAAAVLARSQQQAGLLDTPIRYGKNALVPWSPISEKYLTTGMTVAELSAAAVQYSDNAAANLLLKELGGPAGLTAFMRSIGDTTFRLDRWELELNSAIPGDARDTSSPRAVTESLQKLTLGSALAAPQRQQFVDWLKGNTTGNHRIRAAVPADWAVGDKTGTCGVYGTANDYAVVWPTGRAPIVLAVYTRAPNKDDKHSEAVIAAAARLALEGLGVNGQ
Sequence of various β-lactamases (bacterial lysates) (Salmonella typhimurium, UniProt P0A1V8) (P0A1V8 22-275): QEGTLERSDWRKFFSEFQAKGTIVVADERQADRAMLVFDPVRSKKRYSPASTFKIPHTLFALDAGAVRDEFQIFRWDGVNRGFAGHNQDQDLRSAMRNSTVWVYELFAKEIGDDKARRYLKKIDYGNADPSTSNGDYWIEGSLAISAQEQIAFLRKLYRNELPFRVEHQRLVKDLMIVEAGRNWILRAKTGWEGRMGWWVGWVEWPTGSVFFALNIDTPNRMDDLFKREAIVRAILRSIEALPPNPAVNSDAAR
Sequence of OXA-2, lysate of KX1000 (P0A1V8 22-275): as above
Sequence of various β-lactamases (bacterial lysates) (Klebsiella pneumoniae, UniProt Q9F663, H272Y) (Q9F663 whole entry H272Y, looked up): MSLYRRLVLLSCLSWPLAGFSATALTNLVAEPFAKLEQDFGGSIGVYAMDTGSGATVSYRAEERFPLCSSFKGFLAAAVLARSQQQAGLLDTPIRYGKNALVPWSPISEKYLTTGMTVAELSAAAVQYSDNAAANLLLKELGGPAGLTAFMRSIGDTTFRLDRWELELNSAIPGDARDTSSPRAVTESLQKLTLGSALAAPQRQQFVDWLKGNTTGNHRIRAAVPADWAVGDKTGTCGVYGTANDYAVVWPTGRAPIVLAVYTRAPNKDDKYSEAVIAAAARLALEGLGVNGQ
Sequence of various β-lactamases (bacterial lysates) (Pseudomonas aeruginosa, UniProt P14489) (P14489 20-266): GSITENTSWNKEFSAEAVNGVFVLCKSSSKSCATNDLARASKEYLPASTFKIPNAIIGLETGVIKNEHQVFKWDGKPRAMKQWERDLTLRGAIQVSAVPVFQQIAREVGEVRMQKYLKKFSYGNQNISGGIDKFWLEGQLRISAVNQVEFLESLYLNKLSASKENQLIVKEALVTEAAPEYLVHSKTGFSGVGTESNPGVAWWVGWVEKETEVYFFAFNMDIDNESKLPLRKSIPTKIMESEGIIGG
Sequence of KPC-2, lysate of KP1004 (Q9F663 25-293 limits assumed): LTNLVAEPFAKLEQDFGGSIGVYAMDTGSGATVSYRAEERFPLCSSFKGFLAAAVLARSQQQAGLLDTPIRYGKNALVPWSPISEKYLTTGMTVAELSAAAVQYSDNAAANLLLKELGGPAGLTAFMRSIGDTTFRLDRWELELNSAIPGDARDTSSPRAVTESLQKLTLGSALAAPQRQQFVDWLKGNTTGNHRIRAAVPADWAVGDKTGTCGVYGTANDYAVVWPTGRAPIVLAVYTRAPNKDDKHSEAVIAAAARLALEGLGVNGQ
Sequence of KPC-2, lysate of KP1008 (Q9F663 25-293 limits assumed): as above
Sequence of SHV-12, lysate of KP1010 (P0AD64 22-286 L31Q/G234S/E235K): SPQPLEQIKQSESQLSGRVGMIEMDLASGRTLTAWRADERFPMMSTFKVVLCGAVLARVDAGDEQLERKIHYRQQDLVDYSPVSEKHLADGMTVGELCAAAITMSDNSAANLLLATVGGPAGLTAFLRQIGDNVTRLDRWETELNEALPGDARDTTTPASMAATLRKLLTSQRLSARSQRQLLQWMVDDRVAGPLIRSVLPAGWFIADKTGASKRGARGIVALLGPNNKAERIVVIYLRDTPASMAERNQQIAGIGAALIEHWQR
Sequence of various β-lactamases (bacterial lysates) (Escherichia coli, UniProt A0A5R8T042) (A0A5R8T042 29-291): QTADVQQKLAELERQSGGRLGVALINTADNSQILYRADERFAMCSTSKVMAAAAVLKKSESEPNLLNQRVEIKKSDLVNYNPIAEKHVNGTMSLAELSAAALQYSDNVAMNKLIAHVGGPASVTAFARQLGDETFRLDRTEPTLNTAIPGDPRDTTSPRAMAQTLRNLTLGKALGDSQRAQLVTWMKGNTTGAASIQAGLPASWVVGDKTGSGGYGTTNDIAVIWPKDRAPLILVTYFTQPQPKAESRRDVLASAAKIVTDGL
Sequence of CTX-M-15, lysate of KP1009 (Q9EXV5 entry or part of it): as the sequence (A0A5R8T042 29-291) above
Sequence of GES-1, lysate of pa 1063 (Q9KJY7 19-287): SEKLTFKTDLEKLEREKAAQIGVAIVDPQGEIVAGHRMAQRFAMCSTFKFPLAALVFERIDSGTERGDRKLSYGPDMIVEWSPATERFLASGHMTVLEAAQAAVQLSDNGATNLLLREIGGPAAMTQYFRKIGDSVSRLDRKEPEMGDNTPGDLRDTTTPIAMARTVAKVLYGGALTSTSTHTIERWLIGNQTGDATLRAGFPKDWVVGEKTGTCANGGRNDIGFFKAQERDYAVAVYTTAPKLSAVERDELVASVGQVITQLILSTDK
Sequence of SHV-18, lysate of KP1012 (P0AD64 22-286 R39S/G234A/E235K): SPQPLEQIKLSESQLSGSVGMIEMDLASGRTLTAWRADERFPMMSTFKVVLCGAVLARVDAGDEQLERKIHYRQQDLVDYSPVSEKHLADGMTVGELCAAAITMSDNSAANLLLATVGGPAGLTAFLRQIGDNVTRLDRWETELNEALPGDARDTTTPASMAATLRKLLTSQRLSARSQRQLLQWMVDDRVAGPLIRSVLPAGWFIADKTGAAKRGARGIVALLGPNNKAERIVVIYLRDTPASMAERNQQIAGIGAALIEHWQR
Sequence of SME-2, lysate of SM1000 (P52682 28-294 limits assumed): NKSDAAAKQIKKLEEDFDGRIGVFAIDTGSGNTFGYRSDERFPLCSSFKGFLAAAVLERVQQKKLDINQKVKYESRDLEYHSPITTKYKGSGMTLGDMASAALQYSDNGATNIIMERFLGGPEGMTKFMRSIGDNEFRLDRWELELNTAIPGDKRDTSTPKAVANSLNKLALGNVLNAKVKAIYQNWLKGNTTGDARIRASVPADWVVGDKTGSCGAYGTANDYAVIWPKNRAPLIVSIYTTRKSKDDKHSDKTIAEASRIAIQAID

Row | SMILES | Ceftazidime MIC with cyclic boronic acid ester derivative [1] | Ceftazidime MIC with cyclic boronic acid ester derivative [2] | Ceftazidime MIC with cyclic boronic acid ester derivative [3] | Ceftazidime MIC with cyclic boronic acid ester derivative [4] | Ceftazidime MIC with cyclic boronic acid ester derivative [5] | Ceftazidime MIC with cyclic boronic acid ester derivative [6] | Ceftazidime MIC with cyclic boronic acid ester derivative [7] | Ceftazidime MIC with cyclic boronic acid ester derivative [8] | Ceftazidime MIC with cyclic boronic acid ester derivative [9] | Ceftazidime MIC with cyclic boronic acid ester derivative (SA1000 Salmonella CMY-2) | IC50 [11] [µM] | IC50 [12] [µM] | IC50 [13, 24] [µM] | IC50 [19] [µM] | IC50 [20] [µM] | IC50 (GES-1, lysate of pa 1063) [µM] | IC50 (SHV-12, lysate of KP1010) [µM] | IC50 (SHV-18, lysate of KP1012) [µM] | IC50 (DHA-1, lysate of EC1014) [µM] | IC50 (OXA-2, lysate of KX1000) [µM] | further results
1 | CC(C)(O/N=C(\C(=O)N[C@@H]1C(=O)N2C(C(=O)[O-])=C(C[n+]3ccccc3)CS[C@H]12)c1csc(N)n1)C(=O)O [Ceftazidime, reference compound] |  |  |  |  |  |  |  |  |  |  |  |  |  |  |  |  |  |  |  |  | MIC ([1]; Acinetobacter baumannii, read-out: Ceftazidime MIC Alone): > 8 µg/mL; MIC [2, 21]: > 8 µg/mL; MIC [3, 21]: > 8 µg/mL; MIC [4, 22]: > 8 µg/mL; MIC [5, 22]: > 8 µg/mL; MIC ([6]; Enterobacter cloacae, read-out: Ceftazidime MIC Alone): > 8 µg/mL; MIC [7, 23]: 1 to 8 µg/mL; MIC [8, 23]: > 8 µg/mL; MIC [9, 23]: > 8 µg/mL; MIC (SA1000 Salmonella CMY-2; Salmonella, read-out: Ceftazidime MIC Alone): > 8 µg/mL; MIC [10, 23]: 1 to 8 µg/mL
2 | O=C(O)CC1CC[C@H](NC(=O)C2CC2)B(O)O1 (stereo partly drawn) [Compound 4, 2-((3R)-3-(cyclopropanecarboxamido)-2-hydroxy-1,2-oxaborinan-6-yl)acetic acid] | Z (MIC of greater than 8 μg/mL) | Z (MIC of greater than 8 μg/mL) | Z (MIC of greater than 8 μg/mL) | Z (MIC of greater than 8 μg/mL) | Z (MIC of greater than 8 μg/mL) | Z (MIC of greater than 8 μg/mL) | X (MIC of 1 μg/mL or less) | Y (MIC of greater than 1 μg/mL to 8 μg/mL) | Z (MIC of greater than 8 μg/mL) | Y (MIC of greater than 1 μg/mL to 8 μg/mL) | 2.07 to 8.3 | < 2.07 | < 2.07 | > 4.15 | > 4.15 | 0.415 to 4.15 | > 4.15 | > 4.15 | > 4.15 | > 4.15 | Ceftazidime MIC with cyclic boronic acid ester derivative [10]: X (MIC of 1 μg/mL or less); IC50 [13, 25]: < 2.07 µM; IC50 [14]: < 2.07 µM; IC50 [15]: > 8.3 µM; IC50 [16]: > 8.3 µM; MPC8 [17]: X (MPC8 of less than 0.16 μg/mL); MPC8 [18]: X (MPC8 of less than 0.16 μg/mL); IC50 (SME-2, lysate of SM1000): 0.415 to 4.15 µM; IC50 (KPC-2, lysate of KP1004): < 0.415 µM; IC50 (KPC-2, lysate of KP1008): < 0.415 µM
3 | O=C(O)C[C@@H]1CC[C@H](NC(=O)Cc2cccs2)B(O)O1 [Compound 5, 2-((3R,6S)-2-hydroxy-3-(2-(thiophen-2-yl)acetamido)-1,2-oxaborinan-6-yl)acetic acid] | Z (MIC of greater than 8 μg/mL) | Y (MIC of greater than 1 μg/mL to 8 μg/mL) | Y (MIC of greater than 1 μg/mL to 8 μg/mL) | Y (MIC of greater than 1 μg/mL to 8 μg/mL) | Z (MIC of greater than 8 μg/mL) | Z (MIC of greater than 8 μg/mL) | X (MIC of 1 μg/mL or less) | Y (MIC of greater than 1 μg/mL to 8 μg/mL) | Z (MIC of greater than 8 μg/mL) | Y (MIC of greater than 1 μg/mL to 8 μg/mL) | 1.68 to 6.73 | < 1.68 | < 1.68 | < 0.337 | < 0.337 | < 0.337 | 0.337 to 3.37 | 0.337 to 3.37 | 0.337 to 3.37 | < 0.337 | IC50 [13, 25]: < 1.68 µM; IC50 [14]: < 1.68 µM; IC50 [15]: > 6.73 µM; IC50 [16]: < 1.68 µM; MPC8 [17]: Y (MPC8 of 0.16 μg/mL to 1 μg/mL); MPC8 [18]: Y (MPC8 of 0.16 μg/mL to 1 μg/mL); IC50 (SME-2, lysate of SM1000): < 0.337 µM
4 | Cl.N[C@H]1CCC(CC(=O)O)OB1O (stereo partly drawn) [Compound 7, 2-((3R)-3-amino-2-hydroxy-1,2-oxaborinan-6-yl)acetic acid hydrochloride] |  | Z (MIC of greater than 8 μg/mL) |  | Z (MIC of greater than 8 μg/mL) |  |  |  |  |  |  |  |  |  | > 4.77 | 0.477 to 4.77 | 0.477 to 4.77 | > 4.77 | > 4.77 | > 4.77 | > 4.77 | IC50 (KPC-2, lysate of KP1004): > 4.77 µM; IC50 (KPC-2, lysate of KP1008): > 4.77 µM
5 | CC(=O)N[C@H]1CCC(CC(=O)O)OB1O (stereo partly drawn) [Compound 3, 2-((3R)-3-acetamido-2-hydroxy-1,2-oxaborinan-6-yl)acetic acid] | Z (MIC of greater than 8 μg/mL) | Z (MIC of greater than 8 μg/mL) | Z (MIC of greater than 8 μg/mL) | Z (MIC of greater than 8 μg/mL) | Z (MIC of greater than 8 μg/mL) | Z (MIC of greater than 8 μg/mL) | X (MIC of 1 μg/mL or less) | Z (MIC of greater than 8 μg/mL) | Z (MIC of greater than 8 μg/mL) | Z (MIC of greater than 8 μg/mL) | > 9.3 | < 2.33 | < 2.33 | > 4.65 | > 4.65 | > 4.65 | > 4.65 | > 4.65 | > 4.65 | > 4.65 | Ceftazidime MIC with cyclic boronic acid ester derivative [10]: X (MIC of 1 μg/mL or less); IC50 [13, 25]: 2.33 to 9.3 µM; IC50 [14]: < 2.33 µM; IC50 [15]: > 9.3 µM; IC50 [16]: > 9.3 µM; MPC8 [17]: X (MPC8 of less than 0.16 μg/mL); MPC8 [18]: Y (MPC8 of 0.16 μg/mL to 1 μg/mL); IC50 (KPC-2, lysate of KP1004): < 0.465 µM; IC50 (KPC-2, lysate of KP1008): 0.465 to 4.65 µM
